The values that follow come from US20240132431A1, “METHOD FOR ALKYLATING ACIDIC FUNCTIONAL GROUP” (Chugai Seiyaku Kabushiki Kaisha, priority 2021, published 2024).

This experiment addresses T1, Bcl-2 protein (Recombinant Human Bcl-2 Protein) (Homo sapiens, UniProt P10415).
T1 construct: purchased Novus NBP2-34889
In words: Binding evaluation of mixture library compounds to Bcl-2 using AS-MS (affinity selection mass spectrometry). Put shortly: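 Bcl-2 binding is scored from LC/MS signal retained with protein through gel-filtration spin columns, normalised to unfiltered and protein-free controls. Incubation: 20 μM protein, […] per compound, 1 h, 23° C.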

T1 sequence (P10415 whole entry): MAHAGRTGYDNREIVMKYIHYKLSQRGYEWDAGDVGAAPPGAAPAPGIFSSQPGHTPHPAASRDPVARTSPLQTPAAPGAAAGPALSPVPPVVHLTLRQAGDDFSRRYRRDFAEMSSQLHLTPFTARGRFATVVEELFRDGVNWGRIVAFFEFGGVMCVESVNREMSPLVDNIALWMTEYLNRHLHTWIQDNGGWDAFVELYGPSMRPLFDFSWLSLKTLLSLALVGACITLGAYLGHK

As for `CCOc1cccc(-c2ccccc2CCC(=O)N2CCN(c3ccc(C(=O)NS(=O)(=O)c4ccc(NCCSc5ccccc5)c(C(F)(F)F)c4)nn3)CC2)c1` [B2R011-01, 6-[4-[3-[2-(3-Ethoxyphenyl)phenyl]propanoyl]piperazin-1-yl]-N-[4-(2-phenylsulfanylethylamino)-3-(trifluoromethyl)phenyl]sulfonylpyridazine-3-carboxamide], the “ASMS ratio (%)” value is, setting by setting: (n = 1) 17.7%; (n = 2) −1.3%.
On the same counts, the results for `CCOc1cncc(-c2ccccc2CCC(=O)N2CCN(c3ccc(C(=O)NS(=O)(=O)c4ccc(NCCSc5ccccc5)c(C(F)(F)F)c4)nn3)CC2)c1` [B2R012-01, 6-[4-[3-[2-(5-Ethoxypyridin-3-yl)phenyl]propanoyl]piperazin-1-yl]-N-[4-(2-phenylsulfanylethylamino)-3-(trifluoromethyl)phenyl]sulfonylpyridazine-3-carboxamide] are 15.8% and 13.5%.
On the same counts, the results for `CCOc1cccc(-c2ccc(C(=O)N3CCN(c4ccc(C(=O)NS(=O)(=O)c5ccc(NCCSc6ccccc6)c(C(F)(F)F)c5)nn4)CC3)c3ccccc23)c1` [B2R013-01, 6-[4-[4-(3-Ethoxyphenyl)naphthalene-1-carbonyl]piperazin-1-yl]-N-[4-(2-phenylsulfanylethylamino)-3-(trifluoromethyl)phenyl]sulfonylpyridazine-3-carboxamide] are 7.5% and 7.7%.
On the same counts, the results for `CCOc1cncc(-c2ccc(C(=O)N3CCN(c4ccc(C(=O)NS(=O)(=O)c5ccc(NCCSc6ccccc6)c(C(F)(F)F)c5)nn4)CC3)c3ccccc23)c1` [B2R014-01, 6-[4-[4-(5-Ethoxypyridin-3-yl)naphthalene-1-carbonyl]piperazin-1-yl]-N-[4-(2-phenylsulfanylethylamino)-3-(trifluoromethyl)phenyl]sulfonylpyridazine-3-carboxamide] are 18.6% and 15.1%.
For `CCOc1cccc(-c2cc(C(=O)N3CCN(c4ccc(C(=O)NS(=O)(=O)c5ccc(NCCSc6ccccc6)c(C(F)(F)F)c5)nn4)CC3)cc(C(C)(C)C)c2)c1` [B2R015-01, 6-[4-[3-tert-Butyl-5-(3-ethoxyphenyl)benzoyl]piperazin-1-yl]-N-[4-(2-phenylsulfanylethylamino)-3-(trifluoromethyl)phenyl]sulfonylpyridazine-3-carboxamide], the “ASMS ratio (%)” value came out at 9.7% (n = 1) and 0.0% (n = 2).
On the same counts, the results for `CCOc1cncc(-c2cc(C(=O)N3CCN(c4ccc(C(=O)NS(=O)(=O)c5ccc(NCCSc6ccccc6)c(C(F)(F)F)c5)nn4)CC3)cc(C(C)(C)C)c2)c1` [B2R016-01, 6-[4-[3-tert-Butyl-5-(5-ethoxypyridin-3-yl)benzoyl]piperazin-1-yl]-N-[4-(2-phenylsulfanylethylamino)-3-(trifluoromethyl)phenyl]sulfonylpyridazine-3-carboxamide] are 9.1% and 2.7%.
On the same counts, the results for `CCOc1cccc(-c2cc(C(=O)N3CCN(c4ccc(C(=O)NS(=O)(=O)c5ccc(NCCSc6ccccc6)c(C(F)(F)F)c5)nn4)CC3)cc(C(F)(F)F)c2)c1` [B2R017-01, 6-[4-[3-(3-ethoxyphenyl)-5-(trifluoromethyl)benzoyl]piperazin-1-yl]-N-[4-(2-phenylsulfanylethylamino)-3-(trifluoromethyl)phenyl]sulfonylpyridazine-3-carboxamide] are 32.9% and 27.2%.
On the same counts, the results for `CCOc1cncc(-c2cc(C(=O)N3CCN(c4ccc(C(=O)NS(=O)(=O)c5ccc(NCCSc6ccccc6)c(C(F)(F)F)c5)nn4)CC3)cc(C(F)(F)F)c2)c1` [B2R018-01, 6-[4-[3-(5-Ethoxypyridin-3-yl)-5-(trifluoromethyl)benzoyl]piperazin-1-yl]-N-[4-(2-phenylsulfanylethylamino)-3-(trifluoromethyl)phenyl]sulfonylpyridazine-3-carboxamide] are 5.1% and 7.8%.
In the case of `CCOc1cccc(-c2cnn(-c3cc(C(=O)N4CCN(c5ccc(C(=O)NS(=O)(=O)c6ccc(NCCSc7ccccc7)c(C(F)(F)F)c6)nn5)CC4)cc(C(F)(F)F)c3)c2)c1` [B2R021-01, 6-[4-[3-[4-(3-Ethoxyphenyl)pyrazol-1-yl]-5-(trifluoromethyl)benzoyl]piperazin-1-yl]-N-[4-(2-phenylsulfanylethylamino)-3-(trifluoromethyl)phenyl]sulfonylpyridazine-3-carboxamide], the “ASMS ratio (%)” value (n = 1) is listed as 13.0% and the “ASMS ratio (%)” value (n = 2) was 0.0%.
Take `CCOc1cncc(-c2cnn(-c3cc(C(=O)N4CCN(c5ccc(C(=O)NS(=O)(=O)c6ccc(NCCSc7ccccc7)c(C(F)(F)F)c6)nn5)CC4)cc(C(F)(F)F)c3)c2)c1` [B2R022-01, 6-[4-[3-[4-(5-Ethoxypyridin-3-yl)pyrazol-1-yl]-5-(trifluoromethyl)benzoyl]piperazin-1-yl]-N-[4-(2-phenylsulfanylethylamino)-3-(trifluoromethyl)phenyl]sulfonylpyridazine-3-carboxamide]: the “ASMS ratio (%)” value runs as follows: (n = 1) 14.5%; (n = 2) 15.8%.
On the same counts, the results for `CCOc1cccc(-c2csc(C(=O)N3CCN(c4ccc(C(=O)NS(=O)(=O)c5ccc(NCCSc6ccccc6)c(C(F)(F)F)c5)cc4)CC3)c2)c1` [B2R023-01, 4-[4-[4-(3-Ethoxyphenyl)thiophene-2-carbonyl]piperazin-1-yl]-N-[4-(2-phenylsulfanylethylamino)-3-(trifluoromethyl)phenyl]sulfonylbenzamide] are 0.0% and −15.5%.
In the case of `CCOc1cncc(-c2csc(C(=O)N3CCN(c4ccc(C(=O)NS(=O)(=O)c5ccc(NCCSc6ccccc6)c(C(F)(F)F)c5)cc4)CC3)c2)c1` [B2R024-01, 4-[4-[4-(5-Ethoxypyridin-3-yl)thiophene-2-carbonyl]piperazin-1-yl]-N-[4-(2-phenylsulfanylethylamino)-3-(trifluoromethyl)phenyl]sulfonylbenzamide], the “ASMS ratio (%)” value runs as follows: (n = 1) 0.0%; (n = 2) −1.2%.
On the same counts, the results for `CCOc1cccc(-c2ccc(C(=O)N3CCN(c4ccc(C(=O)NS(=O)(=O)c5ccc(NCCSc6ccccc6)c(C(F)(F)F)c5)cc4)CC3)cc2C)c1` [B2R025-01, 4-[4-[4-(3-Ethoxyphenyl)-3-methylbenzoyl]piperazin-1-yl]-N-[4-(2-phenylsulfanylethylamino)-3-(trifluoromethyl)phenyl]sulfonylbenzamide] are −1.0% and −2.4%.
On the same counts, the results for `CCOc1cncc(-c2ccc(C(=O)N3CCN(c4ccc(C(=O)NS(=O)(=O)c5ccc(NCCSc6ccccc6)c(C(F)(F)F)c5)cc4)CC3)cc2C)c1` [B2R026-01, 4-[4-[4-(5-Ethoxypyridin-3-yl)-3-methylbenzoyl]piperazin-1-yl]-N-[4-(2-phenylsulfanylethylamino)-3-(trifluoromethyl)phenyl]sulfonylbenzamide] are 1.7% and −4.6%.
For `CCOc1cccc(-c2ccc(C(=O)N3CCN(c4ccc(C(=O)NS(=O)(=O)c5ccc(NCCSc6ccccc6)c(C(F)(F)F)c5)cc4)CC3)cc2F)c1` [B2R027-01, 4-[4-[4-(3-Ethoxyphenyl)-3-fluorobenzoyl]piperazin-1-yl]-N-[4-(2-phenylsulfanylethylamino)-3-(trifluoromethyl)phenyl]sulfonylbenzamide], the “ASMS ratio (%)” value is reported as −3.7% (n = 1) and 1.2% (n = 2).
On the same counts, the results for `CCOc1cncc(-c2ccc(C(=O)N3CCN(c4ccc(C(=O)NS(=O)(=O)c5ccc(NCCSc6ccccc6)c(C(F)(F)F)c5)cc4)CC3)cc2F)c1` [B2R028-01, 4-[4-[4-(5-Ethoxypyridin-3-yl)-3-fluorobenzoyl]piperazin-1-yl]-N-[4-(2-phenylsulfanylethylamino)-3-(trifluoromethyl)phenyl]sulfonylbenzamide] are 4.1% and −0.5%.
In the case of `CCOc1cccc(C#Cc2ccccc2C(=O)N2CCN(c3ccc(C(=O)NS(=O)(=O)c4ccc(NCCSc5ccccc5)c(C(F)(F)F)c4)cc3)CC2)c1` [B2R029-01, 4-[4-[2-[2-(3-Ethoxyphenyl)ethynyl]benzoyl]piperazin-1-yl]-N-[4-(2-phenylsulfanylethylamino)-3-(trifluoromethyl)phenyl]sulfonylbenzamide], the “ASMS ratio (%)” value (n = 2) worked out at 0.0%.
For `CCOc1cncc(C#Cc2ccccc2C(=O)N2CCN(c3ccc(C(=O)NS(=O)(=O)c4ccc(NCCSc5ccccc5)c(C(F)(F)F)c4)cc3)CC2)c1` [B2R030-01, 4-[4-[2-[2-(5-Ethoxypyridin-3-yl)ethynyl]benzoyl]piperazin-1-yl]-N-[4-(2-phenylsulfanylethylamino)-3-(trifluoromethyl)phenyl]sulfonylbenzamide], the “ASMS ratio (%)” value is, setting by setting: (n = 1) 0.0%; (n = 2) 4.8%.
On the same counts, the results for `CCOc1cccc(C#Cc2cncc(C(=O)N3CCN(c4ccc(C(=O)NS(=O)(=O)c5ccc(NCCSc6ccccc6)c(C(F)(F)F)c5)cc4)CC3)c2)c1` [B2R031-01, 4-[4-[5-[2-(3-Ethoxyphenyl)ethynyl]pyridine-3-carbonyl]piperazin-1-yl]-N-[4-(2-phenylsulfanylethylamino)-3-(trifluoromethyl)phenyl]sulfonylbenzamide] are 0.0% and 4.8%.
Turning to `CCOc1cncc(C#Cc2cncc(C(=O)N3CCN(c4ccc(C(=O)NS(=O)(=O)c5ccc(NCCSc6ccccc6)c(C(F)(F)F)c5)cc4)CC3)c2)c1` [B2R032-01, 4-[4-[5-[2-(5-Ethoxypyridin-3-yl)ethynyl]pyridine-3-carbonyl]piperazin-1-yl]-N-[4-(2-phenylsulfanylethylamino)-3-(trifluoromethyl)phenyl]sulfonylbenzamide], the “ASMS ratio (%)” value (n = 1) stood at 6.4% and the “ASMS ratio (%)” value (n = 2) amounted to 0.0%.
